Legend:
[1] = tested on: ciliary epithelium; assay: In vitro short-circuit current across the ciliary epithelium (ox)
[2] = tested on: porcine ciliary epithelium; assay: Fluid flow (FF) across the ciliary epithelium in modified Ussing-type chamber; details: aqueous addition of 3.5 mM heptanol, 25° C., n=6 (FIG. 2)
From the text: The reasons being that firstly, no information was available at the time to teach the preparation an intact ciliary epithelium, which is required for fluid flow measurement, and secondly, even when an intact ciliary epithelium was used, there was no device available that would enable measurement of fluid flow across the ciliary epithelium. In view of this, the inventors invested a great deal of effort into developing a modified Ussing-type chamber, which enables fluid flow (FF) and potential difference across the ciliary epithelium to be measured simultaneously. Fundamentally, the Ussing-type chamber includes two hemi-chambers, between which an excised preparation of ciliary epithelium is mounted. […] The graduated capillary can be used to monitor the change in fluid volume inside the second hemi-chamber throughout the experiment, which is then calculated as FF rate. […] At a later stage, the inventors further incorporated electrodes into the FF chamber to enable both electrical parameters and FF to be monitored simultaneously. […] (A) The calculated FF rate in the blood-to-aqueous direction during the course of the experiment. (B) PD recorded simultaneously with the measurement of the capillary levels.

[3] = Topical administration of heptanol to rabbit eyes, intraocular pressure (IOP) in vivo; details: topical administration of 1.0% heptanol to the eyes (FIG. 1)
From the text: FIG. 1 illustrates the effects of topical administration of 1.0% heptanol to rabbit eyes.

[4] = tested on: ciliary epithelium; assay: In vitro short-circuit current across the ciliary epithelium (rabbit)
[5] = tested on: ciliary epithelium; assay: In vitro short-circuit current across the ciliary epithelium (pig)

CCCCCCCO [heptanol]
reduction of short-circuit current across the ciliary epithelium [1]: ~80% | inhibition of fluid flow across the ciliary epithelium [2]: up to 78% | effectiveness in lowering intraocular pressure (IOP) [3]: inconclusive results | reduction of short-circuit current across the ciliary epithelium [4]: ~80% | reduction of short-circuit current across the ciliary epithelium [5]: ~80%

— US20130053425A1, “Method for Lowering Intraocular Pressure Using Gap Junction Blockers” (priority 2011, published 2013)
